Common to all, as to type: cell-based
The target in series [1] is T1, XIAP-Caspase-9 in HEK293-XIAP-Caspase-9 cells (Homo sapiens, UniProt P98170).
T1 construct: FLAG; expressed in transfected cells
Description: HEK293-XIAP-Caspase-9 immunoprecipitation (IP) MSD assay. Conditions: compound 2 h at 37° C.; read-out: HEK293-X-C9 IP. How it is done:
Stable HEK293-XIAP-Caspase-9 cells were plated out into 96-well plates [200 μl/well at 1×10^6 cells/mL in cultured complete medium (DMEM+10% FBS+0.5 mg/mL Geneticin (Invitrogen)] and left overnight at 37° C. to recover. Compounds were added to duplicate wells in 0.1% DMSO for 2 h at 37° C. Cells were lysed in 50 μl 1×MSD lysis buffer (1% Triton X-100 in 20 mM Tris·Cl (pH 7.6), 150 mM NaCl including protease inhibitors) for 20 min rocking at room temperature. Streptavidin high bind MSD plate (L15SB-2) were coated with biotinylated anti-FLAG M2 antibody (Sigma F9291) at 25 μl/well with a 5 μg/mL dilution of antibody in PBS for 1 h, shaking; followed by blocking for 1 h with 150 μl 3% BSA/TBST. Cell lysate (25 μl) was added to the 96-well anti-FLAG coated MSD plate and placed on shaker for 4 h at room temperature. […] Plates were washed 4 times with 150 μl TBST, and 150 μl/well 1×MSD read buffer (R92TC-2) added before reading each plate.
EC50 values were determined from dose-response plots using nonlinear least-squares analysis.

For a further series, the target named is T2, hERG ion channel (Homo sapiens, UniProt Q12809).
T2 construct: expressed in transfected cells; host or cells: CHO K1
T2 sequence (Q12809 whole entry): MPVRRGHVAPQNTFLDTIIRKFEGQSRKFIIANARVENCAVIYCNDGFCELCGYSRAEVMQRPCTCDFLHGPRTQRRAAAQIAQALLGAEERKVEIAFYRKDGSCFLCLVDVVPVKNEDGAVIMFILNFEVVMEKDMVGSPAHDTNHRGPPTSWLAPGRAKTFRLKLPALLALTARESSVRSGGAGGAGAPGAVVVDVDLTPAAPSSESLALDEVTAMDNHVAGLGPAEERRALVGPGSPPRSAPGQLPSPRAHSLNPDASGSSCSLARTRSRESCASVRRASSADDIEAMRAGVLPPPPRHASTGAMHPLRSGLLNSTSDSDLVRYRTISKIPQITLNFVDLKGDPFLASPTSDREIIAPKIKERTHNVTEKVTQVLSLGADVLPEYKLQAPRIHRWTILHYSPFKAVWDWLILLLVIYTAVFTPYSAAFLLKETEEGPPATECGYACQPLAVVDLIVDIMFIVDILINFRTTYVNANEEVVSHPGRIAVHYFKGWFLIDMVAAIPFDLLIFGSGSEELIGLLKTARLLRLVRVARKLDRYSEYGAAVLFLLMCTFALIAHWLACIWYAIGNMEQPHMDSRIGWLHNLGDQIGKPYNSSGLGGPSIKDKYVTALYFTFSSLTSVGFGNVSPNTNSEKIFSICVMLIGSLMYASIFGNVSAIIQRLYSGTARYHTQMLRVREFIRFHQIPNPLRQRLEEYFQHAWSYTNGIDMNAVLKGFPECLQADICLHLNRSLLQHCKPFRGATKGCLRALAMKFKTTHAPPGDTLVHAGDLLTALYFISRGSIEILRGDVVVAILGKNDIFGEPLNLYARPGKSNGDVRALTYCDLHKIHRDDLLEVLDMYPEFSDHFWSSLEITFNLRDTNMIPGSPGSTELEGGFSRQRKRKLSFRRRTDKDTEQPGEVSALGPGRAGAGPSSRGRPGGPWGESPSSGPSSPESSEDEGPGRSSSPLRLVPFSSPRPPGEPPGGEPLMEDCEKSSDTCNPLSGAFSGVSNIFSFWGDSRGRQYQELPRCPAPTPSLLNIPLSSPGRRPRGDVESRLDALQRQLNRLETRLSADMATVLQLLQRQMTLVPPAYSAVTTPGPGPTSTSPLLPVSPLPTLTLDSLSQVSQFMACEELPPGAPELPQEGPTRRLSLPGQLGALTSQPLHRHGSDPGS
Description: Population Patch Clamp (PPC) hERG assay in CHO K1 cells. The note with it: for IC50: CHO K1 cells stably transfected with hERG. Here is the method:
Inhibition of the hERG channel was measured by automated patch clamp assay in CHO K1 cells, stably transfected with the hERG ion channel. PPC measurements were performed using an IonWorks Quattro instrument (Molecular Devices Corporation, Union City, CA) using a 384 well PatchPlate (Molecular Devices Corporation) with 64 apertures per well. Each concentration of test compound was tested in duplicate wells. Amphotericin B was used to obtain electrical access to the cell interior at a final concentration of 200 μg/mL. Human ether-à-gogo related gene (hERG) currents were measured with a prepulse to +40 mV (2 s) from the holding potential of −80 mV, followed by a step to −50 mV (2 s) to elicit the deactivating tail currents, before returning to the holding potential for 1s. Compounds were incubated for 600s between the pre- and post-compound reads. The external recording solution used was 130 mM Na Gluconate, 20 mM NaCl, 4 mM KCl, 1 mM MgCl2, 1.8 mM CaCl2, 10 mM Hepes, 5 mM Glucose, pH to 7.3 with NaOH. All data were filtered for seal quality, seal drop, and current amplitude. The maximum current amplitude of the 3rd pulse tail current was calculated before (Pre) and after (Post) compound addition and the amount of block assessed by dividing the Post-compound current amplitude by the Pre-compound current amplitude.
A general note: Patch clamp records ionic current or voltage across a cell membrane.

For series [2], the system named is EVSA-T (human breast carcinoma). Nature of the series: Anti-proliferative activity, Alamar Blue assay, EVSA-T. Conditions: 72 hours compound, read-out: EVSA-T prolif. Here is the method: The method is based on the ability of viable cells to reduce resazurin to its fluorescent product resorufin. For each proliferation assay cells are plated onto 96 well plates and allowed to recover for 16 hours prior to the addition of inhibitor compounds (in 0.1% DMSO v/v) for a further 72 hours.
The anti-proliferative activities of compounds of the invention can be determined by measuring the ability of the compounds to inhibit growth in 3 cancer cell lines: • EVSA-T (human breast carcinoma) DSMZ cat. no.
(In general: The colour change of resazurin is a common sign of viable cells or microbes.)

Several values for one entry are separate records, joined by “and”; a condition that tells them apart may be missing. Identical values can stand only once. Counter-ions that a name gives are not always drawn. Like-named read-outs stand apart in the source and are kept apart here. A value given as a limit tells only on which side of the number the result lay.

T1 sequence (P98170 whole entry): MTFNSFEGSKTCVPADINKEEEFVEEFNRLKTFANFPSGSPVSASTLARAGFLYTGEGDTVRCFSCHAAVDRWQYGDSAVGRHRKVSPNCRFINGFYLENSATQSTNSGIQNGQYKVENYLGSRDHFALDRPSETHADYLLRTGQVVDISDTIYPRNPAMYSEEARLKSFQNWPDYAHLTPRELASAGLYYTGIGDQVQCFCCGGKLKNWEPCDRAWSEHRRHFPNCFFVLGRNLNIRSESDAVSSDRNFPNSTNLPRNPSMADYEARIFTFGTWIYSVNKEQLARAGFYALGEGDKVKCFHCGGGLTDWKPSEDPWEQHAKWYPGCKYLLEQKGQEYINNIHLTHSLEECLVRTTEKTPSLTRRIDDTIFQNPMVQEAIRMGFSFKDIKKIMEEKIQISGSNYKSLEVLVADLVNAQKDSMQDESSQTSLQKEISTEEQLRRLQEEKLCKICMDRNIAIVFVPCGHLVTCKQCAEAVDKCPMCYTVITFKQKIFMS

On to `COC(CO)c1nc2c(cc1Cc1ccc(F)cc1)N(C(=O)CN1C[C@@H](C)NC[C@@H]1CN1CCOC[C@H]1C)CC2(C)C` (single isomer, unassigned) [Example 27, 1-{6-[(4-Fluorophenyl)methyl]-5-((R or S)-2-hydroxy-1-methoxyethyl)-3,3-dimethyl-1H,2H,3H-pyrrolo[3,2-b]pyridin-1-yl}-2-[(2R,5R)-5-methyl-2-{[(3R)-3-methylmorpholin-4-yl]methyl}piperazin-1-yl] ethan-1-one trihydrochloride], for which the EC50 in series [1] was 6 nM and 9.9 nM. Besides, the “hERG PPC (PI)” value on hERG ion channel (@ 1000 μM) was determined as 55% @ 1000.
On to `C[C@@H]1CN(CC(=O)N2CC(C)(C)c3nc(C(O)CO)c(Cc4ccc(F)cc4)cc32)[C@@H](CN2CCOC[C@H]2C)CN1` (single isomer, unassigned) [Example 13, 1-[5-((R or S)-1,2-Dihydroxyethyl)-6-[(4-fluorophenyl)methyl]-3,3-dimethyl-1H,2H,3H-pyrrolo [3,2-b]pyridin-1-yl]-2-[(2R,5R)-5-methyl-2-{[(3R)-3-methylmorpholin-4-yl]methyl}piperazin-1-yl] ethan-1-one dihydrochloride], for which the EC50 in series [1] is 4.4 nM. For the same compound, the “hERG PPC (PI)” value at hERG ion channel (@ 300 μM, dihydrochloride) amounted to 46% @ 300.
One may read the IC50 as the concentration needed to halve the response being measured. A lower IC50 goes with inhibition by little substance. For `CCCCc1cc2c(nc1CO)C(C)(C)CN2C(=O)CN1C[C@@H](C)NC[C@@H]1CN1[C@H](C)COC[C@H]1C` [Example 34, 1-[6-Butyl-5-(hydroxymethyl)-3,3-dimethyl-1H,2H,3H-pyrrolo[3,2-b]pyridin-1-yl]-2-[(2R,5R)-2-{[(3R,5R)-3,5-dimethylmorpholin-4-yl]methyl}-5-methylpiperazin-1-yl] ethan-1-one dihydrochloride], the EC50 in series [1] was found to be 3.8 nM. Further, at hERG ion channel, the IC50 was 55000 nM.
With `C[C@@H]1CN(CC(=O)N2CC(C)(C)c3[nH]c(=O)c(Cc4ccc(F)cc4)cc32)[C@@H](CN2CCOC[C@H]2C)CN1` [Example 5, 6-[(4-Fluorophenyl)methyl]-3,3-dimethyl-1-{2-[(2R,5R)-5-methyl-2-{[(3R)-3-methylmorpholin-4-yl]methyl}piperazin-1-yl]acetyl}-1H,2H,3H,4H,5H-pyrrolo[3,2-b]pyridin-5-one dihydrochloride], the EC50 in series [1] worked out at 5.3 nM. Moreover, the “hERG PPC (PI)” value at hERG ion channel (@ 300 μM) is listed as 42% @ 300.
As to `C[C@@H]1CN(CC(=O)N2CC(C)(C)c3nc(C(O)CO)c(Cc4ccc(F)cc4)cc32)[C@@H](CN2[C@H](C)COC[C@H]2C)CN1` (single isomer, unassigned) [Example 21, 1-[5-((R or S)-1,2-Dihydroxyethyl)-6-[(4-fluorophenyl)methyl]-3,3-dimethyl-1H,2H,3H-pyrrolo[3,2-b]pyridin-1-yl]-2-[(2R,5R)-2-{[(3R,5R)-3,5-dimethylmorpholin-4-yl]methyl}-5-methylpiperazin-1-yl] ethan-1-one dihydrochloride], in series [1], the EC50 was 2.1 nM. Also, the “hERG PPC (PI)” value on hERG ion channel (@ 100 μM) is reported as 35% @ 100.
With `C[C@@H]1CN(CC(=O)N2CC(C)(C)c3nc(CO)c(Cc4cccc(F)c4)cc32)[C@@H](CN2CCOC[C@H]2C)CN1` [Example 15, 1-{6-[(3-Fluorophenyl)methyl]-5-(hydroxymethyl)-3,3-dimethyl-1H,2H,3H-pyrrolo[3,2-b]pyridin-1-yl}-2-[(2R,5R)-5-methyl-2-{[(3R)-3-methylmorpholin-4-yl]methyl}piperazin-1-yl]ethan-1-one dihydrochloride], the EC50 was 4.9 nM in series [1]; 7.8 nM in series [2] (dihydrochloride); less than 10 nM in series [2] (Homo sapiens, EVSA-T, 72 h). For the same compound, the “hERG PPC (PI)” value at hERG ion channel (@ 100 μM) is 55% @ 100.
Take `COCC(O)c1nc2c(cc1Cc1ccc(F)cc1)N(C(=O)CN1C[C@@H](C)NC[C@@H]1CN1CCOC[C@H]1C)CC2(C)C` (single isomer, unassigned) [Example 26, 1-{6-[(4-Fluorophenyl)methyl]-5-((R or S)-1-hydroxy-2-methoxyethyl)-3,3-dimethyl-1H,2H,3H-pyrrolo[3,2-b]pyridin-1-yl}-2-[(2R,5R)-5-methyl-2-{[(3R)-3-methylmorpholin-4-yl]methyl}piperazin-1-yl] ethan-1-one trihydrochloride]: the EC50 in series [1] was determined as 12 nM. The “hERG PPC (PI)” value on hERG ion channel (@ 31.3 μM) was 41% @ 31.3.
Regarding `C[C@@H]1CN(CC(=O)N2CC(C)(C)c3[nH]c(=O)c(Cc4ccc(F)cc4F)cc32)[C@@H](CN2CCOC[C@H]2C)CN1` [Example 8, 6-[(2,4-Difluorophenyl)methyl]-3,3-dimethyl-1-{2-[(2R,5R)-5-methyl-2-{[(3R)-3-methylmorpholin-4-yl]methyl}piperazin-1-yl]acetyl}-1H,2H,3H,4H,5H-pyrrolo[3,2-b]pyridin-5-one dihydrochloride], the EC50 in series [1] came to 5.4 nM. Besides, on hERG ion channel (@ 300 μM), the “hERG PPC (PI)” value worked out at 39% @ 300.
Take `C[C@@H]1CN(CC(=O)N2CC(C)(C)c3c2cc(Cc2ccc(F)cc2F)c(=O)n3C)[C@@H](CN2[C@H](C)COC[C@H]2C)CN1` [Example 12, 6-[(2,4-Difluorophenyl)methyl]-1-{2-[(2R,5R)-2-{[(3R,5R)-3,5-dimethylmorpholin-4-yl]methyl}-5-methylpiperazin-1-yl]acetyl}-3,3,4-trimethyl-1H,2H,3H,4H,5H-pyrrolo [3,2-b]pyridin-5-one dihydrochloride]: in series [1], the EC50 amounted to 0.69 nM. On hERG ion channel (@ 100 μM), the “hERG PPC (PI)” value was found to be 41% @ 100.
In the case of `C[C@@H]1CN(CC(=O)N2CC(C)(C)c3c2cc(Cc2ccccc2F)c(=O)n3C)[C@@H](CN2CCOC[C@H]2C)CN1` [Example 9, 6-[(2-Fluorophenyl)methyl]-3,3,4-trimethyl-1-{2-[(2R,5R)-5-methyl-2-{[(3R)-3-methylmorpholin-4-yl]methyl}piperazin-1-yl]acetyl}-1H,2H,3H,4H,5H-pyrrolo[3,2-b]pyridin-5-one dihydrochloride], the EC50 in series [1] amounted to 3 nM. The “hERG PPC (PI)” value at hERG ion channel (@ 300 μM) is recorded as 50% @ 300.
Take `Cc1c2c(cn(Cc3ccc(F)cc3F)c1=O)N(C(=O)CN1C[C@@H](C)NC[C@@H]1CN1CCOC[C@H]1C)CC2(C)C` [Example 31, 6-[(2,4-Difluorophenyl)methyl]-3,3,4-trimethyl-1-{2-[(2R,5R)-5-methyl-2-{[(3R)-3-methylmorpholin-4-yl]methyl}piperazin-1-yl]acetyl}-1H,2H,3H,5H,6H-pyrrolo[2,3-c]pyridin-5-one dihydrochloride]: the EC50 in series [1] is 0.94 nM and 2.2 nM. At hERG ion channel, this compound gave an IC50 of 140000 nM.
In the case of `C[C@@H]1CN(CC(=O)N2CC(C)(C)c3c2cc(Cc2ccc(F)cc2F)c(=O)n3C)[C@@H](CN2CCOC[C@H]2C)CN1` [Example 19, 6-[(2,4-Difluorophenyl)methyl]-3,3,4-trimethyl-1-{2-[(2R,5R)-5-methyl-2-{[(3R)-3-methylmorpholin-4-yl]methyl}piperazin-1-yl]acetyl}-1H,2H,3H,4H,5H-pyrrolo[3,2-b]pyridin-5-one dihydrochloride], the EC50 in series [1] was 1.2 nM. Further, the “hERG PPC (PI)” value on hERG ion channel (@ 100 μM) came out at 42% @ 100.
Turning to `CCCCc1cc2c([nH]c1=O)C(C)(C)CN2C(=O)CN1C[C@@H](C)NC[C@@H]1CN1[C@H](C)COC[C@H]1C` [Example 32, 6-Butyl-1-{2-[(2R,5R)-2-{[(3R,5R)-3,5-dimethylmorpholin-4-yl]methyl}-5-methylpiperazin-1-yl]acetyl}-3,3-dimethyl-1H,2H,3H,4H,5H-pyrrolo[3,2-b]pyridin-5-one dihydrochloride], in series [1], the EC50 came to 1.5 nM. Also, the “hERG PPC (PI)” value on hERG ion channel (@ 500 μM) was determined as 55% @ 500.
`C[C@@H]1CN(CC(=O)N2CC(C)(C)c3cc(=O)n(Cc4ccc(F)cc4)cc32)[C@@H](CN2CCOC[C@H]2C)CN1` [Example 17, 6-[(4-Fluorophenyl)methyl]-3,3-dimethyl-1-{2-[(2R,5R)-5-methyl-2-{[(3R)-3-methylmorpholin-4-yl]methyl}piperazin-1-yl]acetyl}-1H,2H,3H,5H,6H-pyrrolo[2,3-c]pyridin-5-one dihydrochloride]: the EC50 in series [1] is 28 nM. The “hERG PPC (PI)” value on hERG ion channel (@ 300 μM) is listed as 59% @ 300.
